Test results published in US20080318227A1, “Intermediates and enzymes of the non-mevalonate isoprenoid pathway” (priority 2001, published 2008).

Tests used:
IspG (GcpE) = target: T1, IspG (GcpE) (Escherichia coli, UniProt P62620); assay: Screening of IspG (GcpE) enzyme activity, crude cell extract of XL1-pACYClytBgcpE, radio-HPLC; type: biochemical; details: after 10 minutes of incubation at 37° C., NADH, CoCl2, pamidronate
T1 construct: 100 μl crude cell extract of XL1-pACYClytBgcpE; made in house; host or cells: E. coli XL1-Blue harbouring pACYClytBgcpE (crude cell extract)
T1 sequence (P62620 whole entry): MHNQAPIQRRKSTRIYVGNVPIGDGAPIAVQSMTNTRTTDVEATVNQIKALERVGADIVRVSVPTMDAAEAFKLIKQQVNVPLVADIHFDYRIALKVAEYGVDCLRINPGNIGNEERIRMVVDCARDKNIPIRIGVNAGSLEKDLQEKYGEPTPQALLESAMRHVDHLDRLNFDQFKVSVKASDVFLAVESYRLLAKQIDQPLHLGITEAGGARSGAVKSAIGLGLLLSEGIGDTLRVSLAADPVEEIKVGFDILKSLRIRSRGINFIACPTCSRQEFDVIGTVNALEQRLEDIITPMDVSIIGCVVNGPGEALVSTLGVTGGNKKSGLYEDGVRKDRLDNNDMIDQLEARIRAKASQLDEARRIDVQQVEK
Method: 0.2 g cells of XL1-pACYClytBgcpE are suspended in 1 ml 50 mM Tris hydrochloride, pH 7.4 and 2 mM DTT, cooled on ice and sonified 3×7 sec with a Branson Sonifier 250 (Branson SONIC Power Company) set to 80% duty cycle output, control value of 4 output. The suspension is centrifuged at 14000 rpm for 15 minutes. The supernatant is used as crude cell extract in assays described as follows.
The assay mixture contains 100 mM Tris hydrochloride, pH 7.4, 1.2 mM dithiothreitol, 10 mM NaF, 1 mM CoCl2, 2 mM NADH, 20 mM (18 μCi mol^−1) [2-^14C[…]2C-methyl-erythritol 2,4-cyclodiphophate, 0.5 mM pamidronate and 100 μl crude cell extract of XL1-pACYClytBgcpE in a total volume of 150 μl. The mixture is incubated for 10 to 45 min at 37° C. and cooled on ice. 10 μl of 30% (g/v) trichloroacetic acid are added and the mixture is neutralized with 20 μl of 1 M NaOH.
The mixture is centrifuged at 14.000 rpm for 10 minutes. Aliquotes of 130 μl of the supernatant are analyzed by reversed-phase ion-pair HPLC using a column of Multospher 120 RP 18-AQ-5 (4.6×250 mm, CS-Chromatographie Service GmbH, Langerwehe, Germany). […] The effluent is monitored by a continuous-flow radio detector (Beta-RAM, Biostep GmbH, Jahnsdorf, Germany). […]

γδ T-cells = assay: γδ T cell stimulation assay (PBMCs, FACS Vδ2 TCR/CD3 double staining); type: cell-based, human; details: for γδ T cell stimulation compared to IPP: at a concentration 200-fold lower than the concentration of the IPP sample; for % γδ T-cells: seven days
Method: PBMCs from healthy donors (donor A and donor B) are isolated from heparinized peripheral blood by density centrifugation over Ficoll-Hypaque (Amersham Pharmacia Biotech, Freiburg, Germany). […] Amounts of recombinant human IL-2 (kindly provided by Eurocetus, Amsterdam, The Netherlands) and substrates are varied from 1 to 10 U and 10 to 0.1 μM, respectively. 20 μM IPP (Echelon, Research Laboratories Inc., Salt Lake City, USA) serves as a positive control whereas medium alone serves as negative control. Incubation is done for seven days at 37° C. in the presence of 7% CO2. The harvested cells are double-stained with fluorescein isothiocyanate (FITC)-conjugated mouse anti-human monoclonal antibody Vδ2 TCR and phycoerythrin (PE)-conjugated monoclonal CD3 antibody. The cells are analyzed using a FACScan supported with Cellquest (Becton Dickinson, Heidelberg, Germany).
The substrates (E)-1-hydroxy-3-methyl-but-2-enyl 4-diphosphate (HMBPP) and 3-formyl-but-2-enyl 1-diphosphate (Aldehyde) were prepared synthetically as described above.

[1] = tested on: Capsicum annuum chromoplasts; assay: Incorporation into the lipid soluble fraction of chromoplasts; type: biochemical; details: [2-14C] label, 8.8 nmol, 30° C. overnight
Method: Chromoplasts are isolated by a slight modification of a method described by Camara (Camara, 1985; Camara, 1993). Pericarp of red pepper (650 g) is homogenized at 4° C. in 600 ml of 50 mM Hepes, pH 8.0, containing 1 mM DTE, 1 mM EDTA and 0.4 M sucrose (buffer A). The suspension is filtered through four layers of nylon cloth (50 μm) and centrifuged (10 min, 4,500 rpm, GSA rotor) to obtain a pellet of crude chromoplasts which is homogenized in 200 ml of buffer A. The suspension is centrifuged (10 min, 4,500 rpm, GSA rotor). The pellet is homogenized and resuspended in 3 ml of 50 mM Hepes, pH 7.6, containing 1 mM DTE. The suspension is filtered through one layer of nylon cloth (50 μm).
Reaction mixtures contain 100 mM Hepes, pH 7.6, 2 mM MnCl2, 10 mM MgCl2, 5 mM NaF, 2 mM NADP^+, 1 mM NADPH, 6 mM ATP, 20 μM FAD and 2 mg of chromoplasts. 8.8 nmol of [2-^14C]2C-methyl-D-erythritol 2,4-cyclodiphosphate, [2-^14C]1-hydroxy-2-methyl-2-(E)-butenyl diphosphate or [2-^14C]isopentenyl diphosphate (specific […] 15.8 μCi/μmol) are added and the mixtures are incubated at 30° C. overnight. The reaction is terminated by methylene chloride extraction. The organic phase is concentrated under a stream of nitrogen. […] The chromatograms are monitored with a phosphor imager (Storm 860, Molecular dynamics, Sunnyvale, Calif., USA). […]

IspH (LytB) = target: T2, IspH (LytB) (Escherichia coli, UniProt P62623); assay: Screening of IspH (LytB) activity, crude cell extract, radio-HPLC; type: biochemical
T2 construct: 20 μl of crude cell extract of M15-pMALlytB cells; made in house; host or cells: E. coli M15 harbouring pMALlytB (crude cell extract)
T2 sequence (P62623 whole entry): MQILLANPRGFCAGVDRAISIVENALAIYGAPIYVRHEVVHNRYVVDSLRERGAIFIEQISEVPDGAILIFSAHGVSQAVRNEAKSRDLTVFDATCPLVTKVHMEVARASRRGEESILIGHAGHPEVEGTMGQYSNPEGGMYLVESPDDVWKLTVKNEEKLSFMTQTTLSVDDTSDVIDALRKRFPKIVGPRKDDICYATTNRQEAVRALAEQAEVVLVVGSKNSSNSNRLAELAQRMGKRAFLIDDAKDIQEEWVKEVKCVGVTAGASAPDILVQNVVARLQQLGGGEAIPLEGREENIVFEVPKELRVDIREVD

[2] = substrate 0.1 μM, IL-2 1 U, Donor A
[3] = substrate 0.1 μM, IL-2 1 U, Donor B
[4] = substrate 0.1 μM, IL-2 5 U, Donor A
[5] = substrate 0.1 μM, IL-2 5 U, Donor B
[6] = substrate 0.1 μM, IL-2 10 U, Donor A
[7] = substrate 0.1 μM, IL-2 10 U, Donor B
[8] = substrate 1 μM, IL-2 1 U, Donor A
[9] = substrate 1 μM, IL-2 1 U, Donor B
[10] = substrate 1 μM, IL-2 5 U, Donor A
[11] = substrate 1 μM, IL-2 5 U, Donor B
[12] = substrate 1 μM, IL-2 10 U, Donor A
[13] = substrate 1 μM, IL-2 10 U, Donor B
[14] = substrate 10 μM, IL-2 1 U, Donor A
[15] = substrate 10 μM, IL-2 1 U, Donor B
[16] = substrate 10 μM, IL-2 5 U, Donor A
[17] = substrate 10 μM, IL-2 5 U, Donor B
[18] = substrate 10 μM, IL-2 10 U, Donor A
[19] = substrate 10 μM, IL-2 10 U, Donor B

Compound | γδ T cell stimulation compared to IPP (γδ T-cells) | % γδ T-cells (γδ T-cells; [2]) | % γδ T-cells (γδ T-cells; [3]) | % γδ T-cells (γδ T-cells; [4]) | % γδ T-cells (γδ T-cells; [5]) | % γδ T-cells (γδ T-cells; [6]) | % γδ T-cells (γδ T-cells; [7]) | % γδ T-cells (γδ T-cells; [8]) | % γδ T-cells (γδ T-cells; [9]) | % γδ T-cells (γδ T-cells; [10]) | % γδ T-cells (γδ T-cells; [11]) | % γδ T-cells (γδ T-cells; [12]) | % γδ T-cells (γδ T-cells; [13]) | % γδ T-cells (γδ T-cells; [14]) | % γδ T-cells (γδ T-cells; [15]) | % γδ T-cells (γδ T-cells; [16]) | % γδ T-cells (γδ T-cells; [17]) | % γδ T-cells (γδ T-cells; [18]) | % γδ T-cells (γδ T-cells; [19]) | also measured
C[C@@]1(CO)OP(=O)(O)OP(=O)(O)OC[C@H]1O [2C-methyl-erythritol 2,4-cyclodiphophate, 2C-methyl-D-erythritol 2,4-cyclodiphosphate] | – | – | – | – | – | – | – | – | – | – | – | – | – | – | – | – | – | – | – | substrate converted into 1-hydroxy-2-methyl-2-(E)-butenyl-4-diphosphate and DMAPP/IPP (IspG (GcpE)): about 13%
C/C(=C\COP(=O)(O)OP(=O)(O)O)CO [HMBPP, (E)-1-hydroxy-3-methyl-but-2-enyl 4-diphosphate] | at least double stimulation compared to IPP | 11.78% | 32.21% | 22.92% | 44.69% | 34.69% | 36.33% | 5.57% | 35.34% | 14.4% | 54.12% | 19.85% | 55.90% | 3.3% | 31.42% | 17.38% | 63.48% | 24.94% | 63.34% | radioactivity diverted into geranylgeraniol, carotene, phytoene and phytofluene fractions [1]: efficiently diverted; HPLC peak of substrate; conversion into DMAPP and IPP (IspH (LytB); crude cell extract of E. coli M15-pMALlytB cells, 30 min at 37° C., NADH, FAD, pamidronate): completely diminished; conversion into DMAPP and IPP (IspH (LytB); crude cell extract of E. coli wild-type as protein source): No conversion
C=C(C)CCO[P@@](=O)(O)OP(=O)(O)O [IPP, isopentenyl diphosphate, reference compound] | – | 1.3% | 2.15% | 1.3% | 2.26% | 1.01% | 2.54% | 1.56% | 2.22% | 1.59% | 2.67% | 1.71% | 2.19% | – | – | – | – | – | – | % γδ T-cells (γδ T-cells; substrate 20 μM, IL-2 1 U, Donor A): 8.19%; % γδ T-cells (γδ T-cells; substrate 20 μM, IL-2 1 U, Donor B): 6.24%; % γδ T-cells (γδ T-cells; substrate 20 μM, IL-2 5 U, Donor A): 14.42%; % γδ T-cells (γδ T-cells; substrate 20 μM, IL-2 5 U, Donor B): 9.32%; % γδ T-cells (γδ T-cells; substrate 20 μM, IL-2 10 U, Donor A): 16.6%; % γδ T-cells (γδ T-cells; substrate 20 μM, IL-2 10 U, Donor B): 11.86%
(E)-3-formyl-but-2-enyl 1-diphosphate [Aldehyde] | at least double stimulation compared to IPP | 10% | 13.54% | 19.77% | 18.45% | 21.93% | 25.82% | 15.91% | 21.18% | 40.13% | 30.76% | 48.28% | 36.69% | 12.19% | 30.69% | 34.69% | 30.33% | 38.99% | 38.85% | –
